According to patent US11491120B2, “Pharmacological prophylactics against stress-induced affective disorders in females” (The Trustees of Columbia University in the City of New York, priority 2017, dated 2022):
“Also recorded” adds a separate entry of the source.

Test system: female 129S6/SvEv mice
Assay: Forced swim test (FST), immobility time, after stress
[1] = 0.025 mg/kg, 1 week prophylactic drug
[2] = 0.025 mg/kg, 1 week prophylactic drug, learned helplessness stress
[3] = 0.025 mg/kg, 3 day prophylactic drug
[4] = 0.075 mg/kg, 1 week prophylactic drug
[5] = 0.1 mg/kg, 1 week prophylactic drug
[6] = 0.3 mg/kg, 1 week prophylactic drug
[7] = 2.5 mg/kg, 1 week prophylactic drug
[8] = 10 mg/kg, 1 week prophylactic drug
[9] = Forced Swim Test Day 1, Dunnett test Sal vs. drug (0.025), 1 week prophylactic drug
[10] = Forced Swim Test Day 1, Dunnett test Sal vs. drug (0.075), 1 week prophylactic drug
[11] = Forced Swim Test Day 1, Dunnett test Sal vs. drug (0.1), 1 week prophylactic drug

N[C@@]1(c2ccccc2Cl)CCC[C@@H](O)C1=O [(2R,6R)-HNK, (2R,6R)-hydroxynorketamine]
* (significance), Sal vs. drug, Dunnett test: Immobility Time (min 1-6), Forced Swim Test Day 2 [1]: *** (*** p<0.0001) | * (significance), Sal vs. drug, Dunnett test: Immobility Time (min 4), Forced Swim Test Day 2 [1]: * (* p<0.05) | * (significance), Sal vs. drug, Dunnett test: Immobility Time (min 5), Forced Swim Test Day 2 [1]: * (* p<0.05) | * (significance), Sal vs. drug, Dunnett test: Immobility Time Average (min 3-6), Forced Swim Test Day 2 [1]: * (* p<0.05) | p, Sal vs. drug, Dunnett test: Immobility Time (min 1), Forced Swim Test Day 2 [1]: 0.0833 | p, Sal vs. drug, Dunnett test: Immobility Time (min 1-6), Forced Swim Test Day 2 [1]: 0.0001 | p, Sal vs. drug, Dunnett test: Immobility Time (min 2), Forced Swim Test Day 2 [1]: 0.5867 | p, Sal vs. drug, Dunnett test: Immobility Time (min 4), Forced Swim Test Day 2 [1]: 0.0383 | p, Sal vs. drug, Dunnett test: Immobility Time (min 5), Forced Swim Test Day 2 [1]: 0.0346 | p, Sal vs. drug, Dunnett test: Immobility Time (min 6), Forced Swim Test Day 2 [1]: 0.2356 | p, Sal vs. drug, Dunnett test: Immobility Time Average (min 3-6), Forced Swim Test Day 2 [1]: 0.0229 | * (significance), Sal vs. drug, Fisher's PLSD: Immobility Time Average (min 3-6), Forced Swim Test Day 2 [2]: *** (*** p<0.0001) | P, Sal vs. drug, Fisher's PLSD: Immobility Time Average (min 3-6), Forced Swim Test Day 2 [2]: <0.0001 | p, Sal vs. drug, t-test: Immobility Time Average (min 3-6), Forced Swim Test Day 2 (0.025 mg/kg, 24 hour prophylactic drug): 0.1367 | Immobility on FST Day 2 vs saline (0.025 mg/kg, 24 hours before CFC, female mice): not prophylactically effective when administered 24 h before a stressor; also recorded: did not alter immobility in the FST | * (significance), Sal vs. drug, Fisher's PLSD: Immobility Time (min 1-6), Forced Swim Test Day 2 [3]: *** (*** p<0.0001) | * (significance), Sal vs. drug, Fisher's PLSD: Immobility Time Average (min 3-6), Forced Swim Test Day 2 [3]: ** (** p<0.01) | p, Sal vs. drug, Fisher's PLSD: Immobility Time (min 1-6), Forced Swim Test Day 2 [3]: <0.0001 | p, Sal vs. drug, Fisher's PLSD: Immobility Time Average (min 3-6), Forced Swim Test Day 2 [3]: 0.0046 | p, Sal vs. drug, Dunnett test: Immobility Time (min 1), Forced Swim Test Day 2 [4]: 0.4238 | p, Sal vs. drug, Dunnett test: Immobility Time (min 1-6), Forced Swim Test Day 2 [4]: 0.5537 | p, Sal vs. drug, Dunnett test: Immobility Time (min 2), Forced Swim Test Day 2 [4]: 0.9312 | p, Sal vs. drug, Dunnett test: Immobility Time (min 4), Forced Swim Test Day 2 [4]: 0.9993 | p, Sal vs. drug, Dunnett test: Immobility Time (min 5), Forced Swim Test Day 2 [4]: >0.9999 | p, Sal vs. drug, Dunnett test: Immobility Time (min 6), Forced Swim Test Day 2 [4]: 0.9760 | p, Sal vs. drug, Dunnett test: Immobility Time Average (min 3-6), Forced Swim Test Day 2 [4]: 0.8615 | p, Sal vs. drug, Dunnett test: Immobility Time (min 1), Forced Swim Test Day 2 [5]: 0.9995 | p, Sal vs. drug, Dunnett test: Immobility Time (min 1-6), Forced Swim Test Day 2 [5]: 0.9871 | p, Sal vs. drug, Dunnett test: Immobility Time (min 2), Forced Swim Test Day 2 [5]: 0.2508 | p, Sal vs. drug, Dunnett test: Immobility Time (min 4), Forced Swim Test Day 2 [5]: 0.9994 | p, Sal vs. drug, Dunnett test: Immobility Time (min 5), Forced Swim Test Day 2 [5]: 0.8037 | p, Sal vs. drug, Dunnett test: Immobility Time (min 6), Forced Swim Test Day 2 [5]: 0.8172 | p, Sal vs. drug, Dunnett test: Immobility Time Average (min 3-6), Forced Swim Test Day 2 [5]: 0.9994 | p, Sal vs. drug, Dunnett test: Immobility Time (min 1), Forced Swim Test Day 2 [6]: 0.9998 | p, Sal vs. drug, Dunnett test: Immobility Time (min 1-6), Forced Swim Test Day 2 [6]: 0.9996 | p, Sal vs. drug, Dunnett test: Immobility Time (min 2), Forced Swim Test Day 2 [6]: 0.9999 | p, Sal vs. drug, Dunnett test: Immobility Time (min 4), Forced Swim Test Day 2 [6]: 0.9883 | p, Sal vs. drug, Dunnett test: Immobility Time (min 5), Forced Swim Test Day 2 [6]: 0.9991 | p, Sal vs. drug, Dunnett test: Immobility Time (min 6), Forced Swim Test Day 2 [6]: 0.9991 | p, Sal vs. drug, Dunnett test: Immobility Time Average (min 3-6), Forced Swim Test Day 2 [6]: 0.9994 | p, Sal vs. drug, Dunnett test: Immobility Time (min 1), Forced Swim Test Day 2 [7]: 0.4807 | p, Sal vs. drug, Dunnett test: Immobility Time (min 1-6), Forced Swim Test Day 2 [7]: 0.6589 | p, Sal vs. drug, Dunnett test: Immobility Time (min 2), Forced Swim Test Day 2 [7]: 0.9193 | p, Sal vs. drug, Dunnett test: Immobility Time (min 4), Forced Swim Test Day 2 [7]: 0.9991 | p, Sal vs. drug, Dunnett test: Immobility Time (min 5), Forced Swim Test Day 2 [7]: >0.9999 | p, Sal vs. drug, Dunnett test: Immobility Time (min 6), Forced Swim Test Day 2 [7]: 0.9995 | p, Sal vs. drug, Dunnett test: Immobility Time Average (min 3-6), Forced Swim Test Day 2 [7]: 0.9507 | p, Sal vs. drug, Dunnett test: Immobility Time (min 1), Forced Swim Test Day 2 [8]: 0.9997 | p, Sal vs. drug, Dunnett test: Immobility Time (min 1-6), Forced Swim Test Day 2 [8]: 0.9950 | p, Sal vs. drug, Dunnett test: Immobility Time (min 2), Forced Swim Test Day 2 [8]: 0.9993 | p, Sal vs. drug, Dunnett test: Immobility Time (min 4), Forced Swim Test Day 2 [8]: 0.9955 | p, Sal vs. drug, Dunnett test: Immobility Time (min 5), Forced Swim Test Day 2 [8]: 0.9991 | p, Sal vs. drug, Dunnett test: Immobility Time (min 6), Forced Swim Test Day 2 [8]: 0.9999 | p, Sal vs. drug, Dunnett test: Immobility Time Average (min 3-6), Forced Swim Test Day 2 [8]: 0.9997 | * (significance), Immobility Time (min 1-6) [9]: ** (** p<0.01) | p, Immobility Time (min 1) [9]: 0.9996 | p, Immobility Time (min 1-6) [9]: 0.0090 | p, Immobility Time (min 3) [9]: 0.9637 | p, Immobility Time (min 4) [9]: 0.8106 | p, Immobility Time (min 5) [9]: 0.8892 | p, Immobility Time (min 6) [9]: 0.6406 | p, Immobility Time Average (min 3-6) [9]: 0.7004 | * (significance), Immobility Time (min 1) [10]: ** (** p<0.01) | p, Immobility Time (min 1) [10]: 0.0017 | p, Immobility Time (min 1-6) [10]: 0.2188 | p, Immobility Time (min 3) [10]: 0.9250 | p, Immobility Time (min 4) [10]: 0.9750 | p, Immobility Time (min 5) [10]: 0.8877 | p, Immobility Time (min 6) [10]: 0.9994 | p, Immobility Time Average (min 3-6) [10]: 0.9526 | p, Immobility Time (min 1) [11]: 0.9996 | p, Immobility Time (min 1-6) [11]: 0.0673 | p, Immobility Time (min 3) [11]: 0.4888 | p, Immobility Time (min 4) [11]: 0.3257 | p, Immobility Time (min 5) [11]: 0.2856 | p, Immobility Time (min 6) [11]: 0.9218
